Like-named read-outs stand apart in the source and are kept apart here. No end group written: not given here.
Experiment: Pharmacokinetic study of AWRK6 in rats after intraperitoneal or intravenous injection, plasma LC-MS/MS
Assay type: in vivo, rat
Conditions: for AUC(0-inf) / Cmax / Tmax / CL/F / MRT / Vd/F / half-life / AUC(0-t) / bioavailability: rat; for CL/F: read-out: CLz/F (converted); for MRT: read-out: MRT(0–t); for Vd/F: read-out: Vz/F; for half-life: read-out: t1/2z (converted); for bioavailability: from AUC, read-out: F (absolute bioavailability)
Description: The samples were analyzed on a LC-MS/MS system consisting of an Agilent 1290 Infinity II UHPLC System coupled with an Agilent 6460 Triple Quadrupole Mass Spectrometer with an electrospray ionisation source (ESI). The Agilent MassHunter Workstation Qualitative Analysis B.06.00 (Agilent Technologies, Santa Clara, CA, USA) software was used. Chromatographic separation was performed on a Supersil ODS2 column (4.6 mm × 250 mm, 5 μm, Dalian Elite Analytical Instruments, Dalian, China). The separation conditions were 30 °C by using a FA-ACN (0.1:99.9, v/v, A) and FA-water (0.1:99.9, v/v, B) solutions at a flow rate of 0.5 mL/min. The sample injection volume was 20 μL and the autosampler was kept at 4 °C. The initial eluent A-B (20:80, v/v) was changed to A-B (30:70, v/v) in 4 min and subsequently changed to A-B (90:10, v/v) in the next 3 min in a linear gradient form and maintained at this ratio for another 1 min. PMB was used as the IS. MS analysis was carried out in the multiple reaction monitoring (MRM) mode with following operation parameters: capillary voltage, 3.5 kV; gas temperature, 325 °C; nebulizer gas pressure, 35 psi; sheath gas, 11 L/min, 350 °C; fragmentor voltages, 155 V for AWRK6 and 75 V for IS; collision energy (CE), 80 eV for AWRK6 and 40 eV for IS; precursor-to-product ion transition, m/z: 533.3→84.1 for AWRK6 and m/z: 402.1→101.1 for IS.
The AWRK6 and IS were dissolved in water at 1.0 mg/mL for stock solution. The AWRK6 calibration standards at 0.05, 0.1, 0.5, 1, 2, 5, and 10 μg/mL were prepared by mixing 50 μL of working solution and 100 μL of blank plasma individually. QC samples of AWRK6 at 0.1, 0.5, and 5 μg/mL were prepared by the same method. The thawed plasma samples (100 μL) were mixed with 50 μL water (or QC), 50 μL IS (1 μg/mL), and 20 μL FA-water (25:75, v/v). A combination of plasma precipitation and liquid–liquid extraction was applied for the extraction of AWRK6 in samples. After adding 200 μL methanol and 100 μL dichloromethane, the mixtures were vortexed for 30 s and centrifuged at 14,000 g for 10 min. The supernatant was filtered by 0.22 μm membrane for LC-MS/MS analysis.
SPF-grade male Sprague Dawley rats (280–320 g, 8 weeks old) were purchased from Liaoning Changsheng Biotechology (Liaoning, China). The rats were housed under a controlled environment (temperature: 25 ± 2 °C; relative humidity: 55 ± 10%; alternating natural light/dark cycles) with free access to food and water unless otherwise noted. The study was approved by the Laboratory Animal Welfare and Ethical Review Board of China Medical University (CMU2019089, 8 March 2019). According to the previous study, the rats was administrated with AWRK6 dissolved in saline intraperitoneally at 2.35, 4.7, and 9.4 mg/kg bodyweight and intravenously at 4.7 mg/kg after being fasted for 12 h. The intravenous doing was administered via the tail vein of the rats. Blood samples were collected from orbital venous plexus at 0.083, 0.167, 0.25, 0.5, 1, 1.5, 2, 3, 4, 6, 8, and 10 h using heparin tubes after administration, followed by centrifugation at 4000 g for 10 min at 4 °C and storage at −80 °C. The obtained data were analyzed using DAS 2.0 software (Anhui Provincial Center for Drug Clinical Evaluation). The absolute bioavailability of AWRK6 for intraperitoneal administration was calculated by the following formula:(1) F=AUCi.p.×Di.v./Di.p.×AUCi.v.×100%

[1] = male Sprague Dawley rats, single i.v. 4.700 mg/kg (tail vein), plasma, LC-MS/MS, mean ± SD, n = 6
[2] = ip, 2.35 mg/kg, male Sprague Dawley rats, single i.p. 2.350 mg/kg, plasma, LC-MS/MS, mean ± SD, n = 6
[3] = ip, 4.7 mg/kg, male Sprague Dawley rats, single i.p. 4.700 mg/kg, plasma, LC-MS/MS, mean ± SD, n = 6
[4] = ip, 9.4 mg/kg, male Sprague Dawley rats, single i.p. 9.400 mg/kg, plasma, LC-MS/MS, mean ± SD, n = 6
[5] = iv, 4.7 mg/kg, male Sprague Dawley rats, single i.v. 4.700 mg/kg (tail vein), plasma, LC-MS/MS, mean ± SD, n = 6
[6] = rats, two-compartment model, weight coefficient of 1, DAS 2.0

SWVGKHGKKFGLKKHKKH-NH2 (C-terminus assumed) [AWRK6]
VRT(0–t) (male Sprague Dawley rats, single i.p. 2.350 mg/kg, plasma, LC-MS/MS, mean ± SD, n = 6): 2.549 ± 1.480 h^2
VRT(0–t) (male Sprague Dawley rats, single i.p. 4.700 mg/kg, plasma, LC-MS/MS, mean ± SD, n = 6): 3.859 ± 0.904 h^2
VRT(0–t) (male Sprague Dawley rats, single i.p. 9.400 mg/kg, plasma, LC-MS/MS, mean ± SD, n = 6): 4.366 ± 1.439 h^2
CLz/F [1]: 28.32 ± 3.65 mL/min/kg
Vz/F [1]: 4.884 ± 1.736 L/kg
AUC(0-inf) [2]: 851 ± 221 ng·h/mL
Cmax [2]: 217 ± 10 ng/mL
Tmax [2]: 1.17 ± 0.258 h
CL/F [2]: 48 mL/min/kg
MRT [2]: 2.26 ± 0.488 h
Vd/F [2]: 10.9 ± 3.96 L/kg
half-life [2]: 2.95 ± 2.05 h
AUC(0-inf) [3]: 1590 ± 275 ng·h/mL
AUC(0-t) [3]: 1360 ± 176 ng·h/mL
Cmax [3]: 454 ± 48 ng/mL
Tmax [3]: 1.25 ± 0.274 h
CL/F [3]: 50.6 mL/min/kg
MRT [3]: 2.49 ± 0.227 h
Vd/F [3]: 12.3 ± 4.85 L/kg
half-life [3]: 2.94 ± 1.4 h
AUC(0-inf) [4]: 2910 ± 356 ng·h/mL
AUC(0-t) [4]: 2630 ± 236 ng·h/mL
Cmax [4]: 888 ± 46 ng/mL
Tmax [4]: 1.21 ± 0.217 h
CL/F [4]: 54.4 mL/min/kg
MRT [4]: 2.52 ± 0.292 h
Vd/F [4]: 12.7 ± 3.37 L/kg
half-life [4]: 2.78 ± 1.02 h
AUC(0-inf) [5]: 2800 ± 333 ng·h/mL
AUC(0-t) [5]: 2600 ± 277 ng·h/mL
Cmax [5]: 2130 ± 174 ng/mL
MRT [5]: 1.73 ± 0.261 h
half-life [5]: 1.98 ± 0.583 h
bioavailability (plasma, ip, 2.35 mg/kg, male Sprague Dawley rats, i.p. 2.350 mg/kg versus i.v. 4.700 mg/kg): 48.8%
bioavailability (plasma, ip, 4.7 mg/kg, male Sprague Dawley rats, i.p. 4.700 mg/kg versus i.v. 4.700 mg/kg): 52.5%
bioavailability (plasma, ip, 9.4 mg/kg, male Sprague Dawley rats, i.p. 9.400 mg/kg versus i.v. 4.700 mg/kg): 50.6%
time after which plasma concentration was below the LLOQ (rats, after intraperitoneal injection, LLOQ 0.050 μg/mL): ~10 h
time at which AWRK6 in plasma was cleared (rats, after intravenous injection 4.7 mg/kg): about 10 h
time at which AWRK6 concentrations in rat plasma peaked (rats, intraperitoneal injections at 2.35, 4.7 and 9.4 mg/kg bodyweight): about 1.2 h
transport rate constant K12 [6]: 2.55 h⁻¹
transport rate constant K21 [6]: 1.67 h⁻¹
